How the values were obtained:
[1] = Rat pharmacokinetics, intravenous injection 1 mg/kg; format: in vivo, Sprague Dawley rats; conditions: for AUC0-7 h / AUC0-7 h of mono-methyl metabolite: n=2, plasma, mean; for AUC0-7 h: dosed parent compound; for AUC0-7 h of mono-methyl metabolite: IV 1 mg/kg of the parent (Example 1 or Comparator A), metabolite measured
Protocol: (§1) The plasma was separated, frozen and later analyzed. […] In the case of Comparator A the plasma was analyzed for Comparator A and its mono-methyl metabolite, Comparator B. The quantitation of each metabolite and its parent compound was done by LC-MS/MS with standard curves using authentic standards of each compound. The analysis allowed the characterization of the time-concentration profile and the calculation of pharmacokinetic (PK) parameters via non-compartmental methods.

CDK1/cyclin B = CDK1/cyclin B (Homo sapiens, UniProt P06493); assay: CDK1/cyclin B enzymatic activity assay (IMAP-FP); format: biochemical; conditions: 100 nM Tamra Histone-H1 peptide, 20 μM ATP, 120 min
Protocol: CDK1/Cyclin B Enzymatic Activity Assay A 384-well microtiter IMAP-FP™ (Molecular Devices Trade Mark Technology) endpoint assay was used for CDK1/cyclin B kinase activity measurements. The same assay was used for IC50 determination of small molecule inhibitors. […] No. R8139), 10 μL substrate mixture of Tamra Histone-H1 peptide (Molecular Devices, Cat. No. R7384) and ATP (Amersham Pharmacia, Cat. No. 27-2056-01) in the 1× Reaction Buffer with 1 mM DTT freshly added. […] All reactions were run at room temperature in black 384-well flat-bottom Costar plates (Corning, Cat. […] No. R8139).

[2] = Rat pharmacokinetics, oral gavage 5 mg/kg; format: in vivo, Sprague Dawley rats; conditions: for Cmax / Tmax / AUC0-7 h: PO 5 mg/kg; for Cmax / Tmax: n=3, dosed parent compound; for Cmax / Tmax / AUC0-7 h / AUC0-7 h of mono-methyl metabolite / Tmax of mono-methyl metabolite: mean; for AUC0-7 h / AUC0-7 h of mono-methyl metabolite: n=3, plasma; for AUC0-7 h: dosed parent compound; for AUC0-7 h of mono-methyl metabolite: PO 5 mg/kg of the parent (Example 1 or Comparator A), metabolite measured; for Tmax of mono-methyl metabolite: PO 5 mg/kg of the parent, n=3, metabolite measured
Protocol: as §1

CDK4/cyclin D1 = target: T1, CDK4/cyclin D1 (Homo sapiens, UniProt P11802); assay: CDK4/cyclin D1 enzymatic activity assay (Lance TR-FRET); format: biochemical; conditions: 0.3 nM CDK4/cyclin D1, 175 nM pRb152, 3 μM ATP, 60 min
T1 construct: His6 (N); made in house; host or cells: Sf21 insect cells (baculovirus)
Protocol: The same assay was used for IC50 determination of small molecule inhibitors. In general, the kinase reactions were carried out in 30 μL volumes in the reaction solution containing the following: 2 uL compound (in 20% DMSO), 18 uL CDK4/cyclin D1 in Assay Buffer (50 mM HEPES, pH 7.5, 5 mM MgCl2, 2 mM MnCl2, 1 mM DTT, 0.05% BSA, 0.02% Tween-20), 10 uL of the mixture of pRb152 and ATP. […] All reactions were run at room temperature in 384-well white flat-bottom OptiPlates (Perkin Elmer, Cat. No. 6007290) for 60 min then were quenched by the addition of 10 μL of 120 mM EDTA. The signals were captured by the addition of 40 μL of the Detection Solution containing the following: Detection Buffer (50 mM HEPES, pH 7.5, 30 mM EDTA, 0.1% Triton x-100, 0.05% BSA), 70 ng/mL anti-phospho-pRb(S780) (Cell Signaling Technology, Cat. No. 9307S), 1 nM Lance Eu-W1024-Rabbit anti-IgG (Perkin Elmer, Cat. No. AD0082), and 20 nM SureLight™ Allophycocyanin-Streptavidin (Perkin Elmer, Cat. No. CR130-100). The resulted solutions were incubated at room temperature for 2 hours before read on the Evision Multilabel Reader (Perkin Elmer, Envision 2102-0010).

Chain of CDK1/cyclin B (P06493 whole entry, species assumed): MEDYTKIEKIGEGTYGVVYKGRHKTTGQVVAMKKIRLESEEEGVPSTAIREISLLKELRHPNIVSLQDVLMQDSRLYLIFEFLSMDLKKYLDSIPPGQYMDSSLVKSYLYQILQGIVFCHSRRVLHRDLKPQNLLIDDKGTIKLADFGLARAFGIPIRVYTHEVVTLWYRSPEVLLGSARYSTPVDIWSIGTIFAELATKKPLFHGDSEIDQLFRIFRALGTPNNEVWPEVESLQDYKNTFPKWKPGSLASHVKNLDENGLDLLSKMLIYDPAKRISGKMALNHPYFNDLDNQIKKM
Chain of CDK1/cyclin B (P14635 whole entry partner, species assumed): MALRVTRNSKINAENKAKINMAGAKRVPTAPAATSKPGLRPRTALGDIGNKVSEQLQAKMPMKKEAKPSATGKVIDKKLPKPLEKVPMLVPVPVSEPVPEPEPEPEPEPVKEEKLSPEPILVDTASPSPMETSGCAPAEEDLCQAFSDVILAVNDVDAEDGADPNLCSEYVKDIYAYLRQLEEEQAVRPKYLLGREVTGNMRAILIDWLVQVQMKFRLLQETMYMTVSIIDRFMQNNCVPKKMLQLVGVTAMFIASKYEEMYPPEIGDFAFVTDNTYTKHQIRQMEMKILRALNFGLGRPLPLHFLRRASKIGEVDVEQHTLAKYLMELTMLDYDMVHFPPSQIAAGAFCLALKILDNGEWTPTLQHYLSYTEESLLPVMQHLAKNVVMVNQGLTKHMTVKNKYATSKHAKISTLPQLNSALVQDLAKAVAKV
T1 sequence (P11802 whole entry): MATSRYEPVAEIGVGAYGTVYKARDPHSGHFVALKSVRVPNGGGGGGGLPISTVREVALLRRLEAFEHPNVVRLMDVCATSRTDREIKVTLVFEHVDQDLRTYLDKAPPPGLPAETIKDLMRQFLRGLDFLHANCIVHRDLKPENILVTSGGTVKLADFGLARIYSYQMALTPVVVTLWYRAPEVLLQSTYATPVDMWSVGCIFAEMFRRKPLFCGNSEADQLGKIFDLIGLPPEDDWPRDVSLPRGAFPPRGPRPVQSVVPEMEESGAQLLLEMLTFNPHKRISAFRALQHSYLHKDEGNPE
T1 sequence (P24385 whole entry partner): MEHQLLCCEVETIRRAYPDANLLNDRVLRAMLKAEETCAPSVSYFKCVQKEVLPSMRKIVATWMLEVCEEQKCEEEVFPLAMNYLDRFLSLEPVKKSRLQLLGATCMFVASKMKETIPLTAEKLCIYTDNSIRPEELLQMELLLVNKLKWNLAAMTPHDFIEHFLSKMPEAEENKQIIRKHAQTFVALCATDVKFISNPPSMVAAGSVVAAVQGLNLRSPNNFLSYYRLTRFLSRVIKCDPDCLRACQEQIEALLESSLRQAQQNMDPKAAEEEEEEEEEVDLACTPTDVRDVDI

| AUC0-7 h of mono-methyl metabolite [1] | AUC0-7 h of mono-methyl metabolite [2] | Tmax of mono-methyl metabolite [2] | Molecule | T½ ([1]; IV 1 mg/kg, n=2, mean) | AUC0-7 h ([1]; IV 1 mg/kg) | Tmax [2] | AUC0-7 h [2] | further results |
| --- | --- | --- | --- | --- | --- | --- | --- | --- |
| – | – | – | 7-cyclopentyl-2-(5-piperzin-1-yl-pyridin-2-ylamino)-7H-pyrrolo[2,3-d]pyrimidine-6-carboxylic acid dimethylamide-d5 [Example 1] | 3.2 h | 883 nM·h | 2 h | 2432 nM·h | VDss higher than VDss of Comparator A ([1]; 1 mg/kg iv): approximately 1.6 fold; CL ([1]; IV 1 mg/kg, n=2, mean): 37 mL/min/kg; Vdss ([1]; IV 1 mg/kg, n=2, mean): 8.6 L/kg; IC50 (CDK1/cyclin B; […] CDK1/cyclin B): > 15 µM; Absolute oral bioavailability higher than Comparator A ([2]; 5 mg/kg po): 1.8 fold; F (absolute oral bioavailability) ([2]; PO 5 mg/kg vs IV 1 mg/kg): 55%; Cmax [2]: 549 nM |
| – | – | – | CN(C)C(=O)c1cc2cnc(Nc3ccc(N4CCNCC4)cn3)nc2n1C1CCCC1 [Comparator A, 7-cyclopentyl-2-(5-piperazin-1-yl-pyridin-2-ylamino)-7H-pyrrolo[2,3-d]pyrimidine-6-carboxylic acid dimethylamide, reference compound] | 2.3 h | 1028 nM·h | 1.5 h | 1618 nM·h | clearance ([1]; Sprague Dawley, plasma, IV 1 mg/kg, n=2, mean): 34 mL/min/kg; Vd ([1]; Sprague Dawley, plasma, IV 1 mg/kg, n=2, mean, read-out: Vdss): 5.4 L/kg; bioavailability ([2]; Sprague Dawley, plasma, PO 5 mg/kg vs IV 1 mg/kg, read-out: F (absolute oral bioavailability)): 31%; Cmax ([2]; Sprague Dawley, plasma): 348 nM |
| 156 nM·h | 372 nM·h | 4.3 h | CNC(=O)c1cc2cnc(Nc3ccc(N4CCNCC4)cn3)nc2n1C1CCCC1 [Comparator B, 7-cyclopentyl-2-(5-piperazin-1-yl-pyridin-2-ylamino)-7H-pyrrolo[2,3-d]pyrimidine-6-carboxylic acid methylamide, reference compound] | – | – | – | – | – |
| 66 nM·h | 128 nM·h | 3.3 h | [2H]C([2H])([2H])NC(=O)c1cc2cnc(Nc3ccc(N4CCNCC4)cn3)nc2n1C1CCCC1 [Example 2, 7-cyclopentyl-2-(5-piperzin-1-yl-pyridin-2-ylamino)-7H-pyrrolo[2,3-d]pyrimidine-6-carboxylic acid methylamide-d3] | – | – | – | – | IC50 (CDK1/cyclin B; 0.25 nM CDK1/cyclin B): > 15 µM; IC50 (CDK4/cyclin D1): 132 nM |
